Assay [1] relates to ISC-enriched organoids. The assay can be described thus: Primary screen, 384-well 2.5-D organoid differentiation (ENR+CD, 6 days): basal lysozyme secretion (LYZ.NS). It counts as cell-based, murine. The conditions noted are these: strictly standardized mean difference, primary screen. The text has this:
(§1) High-throughput screening.

Assay [2] has as its system ISC-enriched organoids. The assay can be described thus: Primary screen, 384-well 2.5-D organoid differentiation (ENR+CD, 6 days): carbachol-induced lysozyme secretion (LYZ.S). It counts as cell-based, murine. Particulars: primary screen; for Z.LYZ.S: standard z score; for SSMD.LYZ.S: strictly standardized mean difference.
Excerpt: as §1

The test system of assay [3] is ISC-enriched organoids. The assay can be described thus: Primary screen, 384-well 2.5-D organoid differentiation (ENR+CD, 6 days, Target Selective Inhibitor Library, vs whole-plate median): ATP (CellTiter-Glo 3D, CTG). The conditions noted are these: primary screen; for Z.CTG: standard z score; for SSMD.CTG: strictly standardized mean difference. Background: ATP-based viability assays read luminescence as a measure of living cells.

The mark [4] stands for this setting: 1st of the 4 dose lines of the treatment (dose not given).
Setting [5] is: 2nd of the 4 dose lines of the treatment (dose not given).
[6] abbreviates: 3rd of the 4 dose lines of the treatment (dose not given).
Where [7] appears, read: 4th of the 4 dose lines of the treatment (dose not given).

For `N#Cc1ccc(C(c2ccc(C#N)cc2)n2cncn2)cc1` [Letrozole], the SSMD.LYZ.NS in assay [1] (setting [4]) was 0.554; in assay [1] (setting [5]), 1.104; in assay [1] (setting [6]), 0.063; in assay [1] (setting [7]), −0.042. In addition, the Z.LYZ.S in assay [2] (setting [4]) is 0.258; in assay [2] (setting [5]), 0.970; in assay [2] (setting [6]) it was 0.038; in assay [2] (setting [7]), 0.040. Further, the SSMD.LYZ.S in assay [2] (setting [4]) worked out at 0.212; in assay [2] (setting [5]) it was 0.764; in assay [2] (setting [6]) it was 0.041; in assay [2] (setting [7]), 0.028. Besides, the Z.CTG in assay [3] (Dose 0.08 uM) is on record as −0.031; in assay [3] (Dose 0.40 uM), 0.241; in assay [3] (Dose 2.00 uM), 0.236; in assay [3] (Dose 10.00 uM), 0.408. Besides, the SSMD.CTG in assay [3] (setting [4]) is reported as −0.043; in assay [3] (setting [5]), 0.336; in assay [3] (setting [6]), 0.288; in assay [3] (setting [7]) it was 0.606.
With `CCN1CCC[C@H]1CNC(=O)c1cc(S(N)(=O)=O)ccc1OC` [Levosulpiride], the SSMD.LYZ.NS was 0.092 in assay [1] (setting [4]), 0.226 in assay [1] (setting [5]), 0.501 in assay [1] (setting [6]) and −0.195 in assay [1] (setting [7]). Also, the Z.LYZ.S is reported as −0.108 in assay [2] (setting [4]), 0.830 in assay [2] (setting [5]), 0.800 in assay [2] (setting [6]) and −0.168 in assay [2] (setting [7]). The SSMD.LYZ.S was −0.076 in assay [2] (setting [4]), 0.774 in assay [2] (setting [5]), 0.531 in assay [2] (setting [6]) and −0.154 in assay [2] (setting [7]). Also, the Z.CTG in assay [3] (Dose 0.08 uM) is listed as −0.102; in assay [3] (Dose 0.40 uM), −0.015; in assay [3] (Dose 2.00 uM), 0.074; in assay [3] (Dose 10.00 uM), 0.215. Also, the SSMD.CTG is given as −0.129 in assay [3] (setting [4]), −0.019 in assay [3] (setting [5]), 0.087 in assay [3] (setting [6]) and 0.297 in assay [3] (setting [7]).
For the compound `CCN(CC)CC(=O)Nc1c(C)cccc1C` [Lidocaine], the SSMD.LYZ.NS in assay [1] (setting [4]) was 0.904; in assay [1] (setting [5]) it was 0.132; in assay [1] (setting [6]), 0.008; in assay [1] (setting [7]) it was 0.183. The Z.LYZ.S in assay [2] (setting [4]) is given as 0.537; in assay [2] (setting [5]), 0.167; in assay [2] (setting [6]), −0.244; in assay [2] (setting [7]) it was −0.061. The SSMD.LYZ.S in assay [2] (setting [4]) is 0.448; in assay [2] (setting [5]), 0.197; in assay [2] (setting [6]) it was −0.268; in assay [2] (setting [7]), −0.070. The Z.CTG is recorded as −0.188 in assay [3] (Dose 0.08 uM), −0.365 in assay [3] (Dose 0.40 uM), 0.081 in assay [3] (Dose 2.00 uM) and −0.611 in assay [3] (Dose 10.00 uM). The SSMD.CTG in assay [3] (setting [4]) is reported as −0.237; in assay [3] (setting [5]), −0.371; in assay [3] (setting [6]), 0.116; in assay [3] (setting [7]), −0.889.
Take `CC#CCn1c(N2CCC[C@@H](N)C2)nc2c1c(=O)n(Cc1nc(C)c3ccccc3n1)c(=O)n2C` [Linagliptin]: the SSMD.LYZ.NS in assay [1] (setting [4]) turned out to be 1.046; in assay [1] (setting [5]) it was 0.306; in assay [1] (setting [6]), 0.118; in assay [1] (setting [7]) it was 0.671. In addition, the Z.LYZ.S in assay [2] (setting [4]) is recorded as 0.905; in assay [2] (setting [5]) it was 0.305; in assay [2] (setting [6]), −0.204; in assay [2] (setting [7]), 0.322. Also, the SSMD.LYZ.S in assay [2] (setting [4]) is listed as 0.797; in assay [2] (setting [5]), 0.215; in assay [2] (setting [6]) it was −0.126; in assay [2] (setting [7]) it was 0.374. In addition, the Z.CTG in assay [3] (Dose 0.08 uM) is 0.389; in assay [3] (Dose 0.40 uM), 0.499; in assay [3] (Dose 2.00 uM), 0.054; in assay [3] (Dose 10.00 uM), −0.027. The SSMD.CTG in assay [3] (setting [4]) is listed as 0.299; in assay [3] (setting [5]) it was 0.612; in assay [3] (setting [6]), 0.047; in assay [3] (setting [7]), −0.025.
